pIC50: −log10 of the molar value.
Tests used:
[1] = target: periodontal cyclooxygenase; experiment: Inhibition of cyclooxygenase products (14C arachidonic acid incorporation) in inflamed human gingival tissue homogenate; type: biochemical; details: for % Control: 2 hours at 37° C.
Description: Inflamed human gingival tissue was obtained from patients with periodontitis who were undergoing routine periodontal surgery. The tissues were immediately stored in liquid nitrogen prior to use or were used fresh. The assay of cyclooxygenase products was performed as a modification of the assay of El Attar et al., J. Periodon. Res., 21, 169-176 (1986). Pooled tissue was weighed and homogenized at 0°-4° C. with a polytron (Brinkman) homogenizer in a 0.2 M TRIS buffer, pH 8.0, at a final concentration of 20 mg/ml. After centrifugation for 10 minutes at 1200×g, the supernatant was divided into 3 ml aliquots for incubation in the presence or absence of a test compound. The test compounds were tested in triplicate over a log range of 10^-3 to 10^-9 M. The reaction was started by the addition of 0.2 uCi of ^14 C arachidonic acid and carried out for 2 hours at 37° C. The reaction was stopped by the addition of two volumes of ethanol and allowed to remain at room temperature for 30 minutes prior to centrifugation for 10 minutes in order to remove the precipitate. The prostaglandin was then extracted.
Prostanoids were extracted as described by Powell, Methods in Eng., 86, 467 (1982) using a Sep-Pak-C18 cartridge from Walters Associates. The Sep-Pak was prepared by the sequential elusion of 20 milliliters of ethanol and 20 milliliters of water. The sample was then adjusted to 15% ethanol, pH 3.0, with acetic acid and applied to the column. The column was eluted with 20 ml of 15% ethanol, pH 3.0, 20 ml of petroleum ether and then the prostaglandin and Tx (thromboxane) was eluded with 10 ml of methyl formate. Thereafter, the methyl formate was evaporated to dryness with nitrogen and reconstituted in 32% […] (high-pressure liquid chromatography buffer).
These are readily separated and quantified using a 4.6×100 mm RP-18 Spheri-5u column from Brownlee Labs. A Flow-One radioactivity monitor simultaneously measured radioactivity. The elution was monitored at 192 nanometers.
The net incorporation of the ^14 C arachidonate was measured in the absence of the test substance in order to determine the maximal activity of the cyclooxygenase cascade. The percent inhibition for the inhibitors tested was then determined at several concentrations in order to calculate the IC50.

[2] = tested on: periodontally supporting bone loss; details: beagle dog model; clinical index of periodontal disease progression; cited from earlier work

CC(C)Cc1ccc(C(C)C(=O)O)cc1 (centres unmarked) [ibuprofen]
pIC50 ([1]; calculated from percent inhibition at several concentrations): 4.82 | % Control ([1]; drug concentration 1 × 10^-4 M, 100 µM): 27.5% | % Control ([1]; drug concentration 1 × 10^-5 M, 10 µM): 55.6% | % Control ([1]; drug concentration 10^-6 M, 1 µM): 92.6% | Inhibition of periodontally supporting bone loss [2]: effective

From US5225441A, “Treatment of periodontal disease” (Block Drug Company, Inc., priority 1987, dated 1993)
